The IC50 is the concentration that gives 50% inhibition. Low readings indicate higher potency, high ones lower potency.

The source of these data is ChEMBL document CHEMBL1150500, “Epoxidation of 6,7- and 10,11-oxidosqualenes by the squalene epoxidase present in rat liver microsomes” (Bioorg Med Chem Lett, 1993).

The target of the experiment is Squalene monooxygenase (Rattus norvegicus, UniProt P52020). The experiment in a line: Compound was tested for its inhibitory activity against squalene epoxidase from rat liver microsomes. (In general: Microsomes from liver hold many membrane-bound enzymes, among them those of drug oxidation.)
Chain of Squalene monooxygenase (P52020 whole entry): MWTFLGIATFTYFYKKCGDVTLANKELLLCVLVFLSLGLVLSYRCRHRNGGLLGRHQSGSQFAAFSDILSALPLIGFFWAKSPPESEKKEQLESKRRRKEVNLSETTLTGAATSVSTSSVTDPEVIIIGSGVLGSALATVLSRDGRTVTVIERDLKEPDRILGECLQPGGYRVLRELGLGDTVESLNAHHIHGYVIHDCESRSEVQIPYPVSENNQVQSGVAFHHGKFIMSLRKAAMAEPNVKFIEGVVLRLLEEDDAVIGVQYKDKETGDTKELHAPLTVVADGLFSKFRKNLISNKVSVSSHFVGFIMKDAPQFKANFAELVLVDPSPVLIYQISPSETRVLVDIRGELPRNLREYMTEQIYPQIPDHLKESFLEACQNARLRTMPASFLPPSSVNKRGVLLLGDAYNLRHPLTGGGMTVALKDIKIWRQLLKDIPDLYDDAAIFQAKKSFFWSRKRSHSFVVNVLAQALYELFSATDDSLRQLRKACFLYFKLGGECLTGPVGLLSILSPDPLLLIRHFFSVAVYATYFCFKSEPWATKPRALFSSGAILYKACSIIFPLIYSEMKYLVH

Turning to `CC(C)=CCC/C(C)=C/CC/C(C)=C/CCC1OC1(C)CC/C=C(\C)CCC=C(C)C` (centres undefined), 50.9 µM corresponded to half-maximal inhibition (IC50).

On to `CC(C)=CCCC1(C)OC1CC/C(C)=C/CC/C=C(\C)CC/C=C(\C)CC[C@@H]1OC1(C)C` (some centres undefined), for which the half-inhibitory concentration (IC50) was 0.11 µM. As for `CC(C)=CCC/C(C)=C/CC/C(C)=C/CC/C=C(\C)CCC1OC1(C)CCC=C(C)C` (centres undefined), the figure is 31.8 µM; as for `CC(C)=CCC/C(C)=C/CC/C(C)=C/CCC1OC1(C)CC/C=C(\C)CC[C@@H]1OC1(C)C` (some centres undefined), 13 µM.
